From ChEMBL document CHEMBL5236590, “Discovery of Novel N-(5-(Pyridin-3-yl)-1H-indazol-3-yl)benzamide Derivatives as Potent Cyclin-Dependent Kinase 7 Inhibitors for the Treatment of Autosomal Dominant Polycystic Kidney Disease” (J Med Chem, 2022)

What was measured:
[1] = target: Inhibitor of nuclear factor kappa-B kinase subunit alpha (Homo sapiens) (UniProt O15111); assay: Inhibition of human full length wild type IKKalpha expressed in mammalian system at 1 uM by KINOMEscan analysis relative to control
[2] = target: Mitogen-activated protein kinase kinase kinase 9 (Homo sapiens) (UniProt P80192); assay: Inhibition of human partial length wild type MLK1 expressed in bacterial system at 1 uM by KINOMEscan analysis relative to control
Mitogen-activated protein kinase kinase kinase 9 (Homo sapiens), sequence (P80192 whole entry, looked up): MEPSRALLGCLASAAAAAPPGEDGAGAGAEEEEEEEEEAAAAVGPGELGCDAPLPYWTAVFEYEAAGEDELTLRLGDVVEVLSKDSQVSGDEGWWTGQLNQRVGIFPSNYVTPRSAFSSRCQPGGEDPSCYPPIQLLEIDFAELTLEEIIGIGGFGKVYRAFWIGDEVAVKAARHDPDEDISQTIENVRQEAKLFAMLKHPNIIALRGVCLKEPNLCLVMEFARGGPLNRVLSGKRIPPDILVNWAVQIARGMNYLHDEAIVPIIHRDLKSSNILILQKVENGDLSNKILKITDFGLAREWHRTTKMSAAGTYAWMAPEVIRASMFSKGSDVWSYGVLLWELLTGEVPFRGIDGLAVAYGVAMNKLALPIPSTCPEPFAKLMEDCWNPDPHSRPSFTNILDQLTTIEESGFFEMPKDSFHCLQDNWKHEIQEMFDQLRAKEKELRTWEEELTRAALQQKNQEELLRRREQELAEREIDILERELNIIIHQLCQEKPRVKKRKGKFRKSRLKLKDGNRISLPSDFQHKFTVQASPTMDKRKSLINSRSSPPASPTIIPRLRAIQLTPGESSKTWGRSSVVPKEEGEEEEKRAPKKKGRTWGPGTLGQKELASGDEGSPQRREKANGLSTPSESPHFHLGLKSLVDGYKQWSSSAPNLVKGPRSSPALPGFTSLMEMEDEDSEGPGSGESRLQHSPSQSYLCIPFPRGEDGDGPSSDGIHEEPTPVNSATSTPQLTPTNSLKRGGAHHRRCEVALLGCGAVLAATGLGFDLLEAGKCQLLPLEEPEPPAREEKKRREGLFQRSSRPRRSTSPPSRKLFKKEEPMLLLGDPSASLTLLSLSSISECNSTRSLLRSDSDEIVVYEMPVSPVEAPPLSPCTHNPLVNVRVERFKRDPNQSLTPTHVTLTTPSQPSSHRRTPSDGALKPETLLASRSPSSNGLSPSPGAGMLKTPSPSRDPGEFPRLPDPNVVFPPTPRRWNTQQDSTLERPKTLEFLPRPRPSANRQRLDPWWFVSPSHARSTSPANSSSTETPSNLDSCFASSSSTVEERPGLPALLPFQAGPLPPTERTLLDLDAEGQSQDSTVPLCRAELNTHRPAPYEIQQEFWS

[3] = AUClast in ICR mouse at 5 mg/kg, sc single dose measured upto 24 hrs; format: ADME, organism-based; design: time < 24 hrs, dose 5 mg/kg, route sc; conditions: in vivo
[4] = target: Tyrosine-protein kinase Fyn (Homo sapiens) (UniProt P06241); assay: Inhibition of human partial length wild type Fyn (T243/L534) expressed in bacterial system at 1 uM by KINOMEscan analysis relative to control
Tyrosine-protein kinase Fyn (Homo sapiens), sequence (P06241 2-537 limits assumed): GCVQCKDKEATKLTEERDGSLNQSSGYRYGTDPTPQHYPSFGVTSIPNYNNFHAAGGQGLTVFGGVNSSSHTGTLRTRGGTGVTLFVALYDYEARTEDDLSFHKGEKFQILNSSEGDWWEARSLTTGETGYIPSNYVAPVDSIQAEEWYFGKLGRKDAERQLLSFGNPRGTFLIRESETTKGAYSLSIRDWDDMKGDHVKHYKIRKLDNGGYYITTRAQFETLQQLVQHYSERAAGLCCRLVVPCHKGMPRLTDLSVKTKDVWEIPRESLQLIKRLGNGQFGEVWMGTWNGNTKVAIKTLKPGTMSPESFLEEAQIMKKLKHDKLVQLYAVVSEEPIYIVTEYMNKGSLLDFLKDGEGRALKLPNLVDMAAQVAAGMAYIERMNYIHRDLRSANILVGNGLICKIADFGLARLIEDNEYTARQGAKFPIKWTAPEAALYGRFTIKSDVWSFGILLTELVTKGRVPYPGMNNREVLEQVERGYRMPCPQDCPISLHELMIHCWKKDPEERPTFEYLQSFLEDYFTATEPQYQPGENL

[5] = target: Interleukin-1 receptor-associated kinase 4 (Homo sapiens) (UniProt Q9NWZ3); assay: Inhibition of human partial length wild type IRAK4 expressed in mammalian system at 1 uM by KINOMEscan analysis relative to control
[6] = Observed MRT (infinitive) in ICR mouse at 5 mg/kg, sc single dose measured upto 24 hrs; format: ADME, organism-based; conditions: in vivo
[7] = target: Serine/threonine-protein kinase mTOR (Homo sapiens) (UniProt P42345); assay: Inhibition of human partial length wild type mTOR (L1382/W2549) expressed in mammalian system at 1 uM by KINOMEscan analysis relative to control
[8] = target: Ribosomal protein S6 kinase alpha-1 (Homo sapiens) (UniProt Q15418); assay: Inhibition of human partial length wild type Rsk1 (M1/E388) expressed in bacterial system at 1 uM by KINOMEscan analysis relative to control
[9] = target: ALK tyrosine kinase receptor (Homo sapiens) (UniProt Q9UM73); assay: Inhibition of human partial length ALK (I1088/E1409) expressed in mammalian system at 1 uM by KINOMEscan analysis relative to control
[10] = target: MAP kinase-activated protein kinase 5 (Homo sapiens) (UniProt Q8IW41); assay: Inhibition of human partial length wild type PRAK (M1/D322) expressed in mammalian system at 1 uM by KINOMEscan analysis relative to control
MAP kinase-activated protein kinase 5 (Homo sapiens), sequence (Q8IW41 whole entry): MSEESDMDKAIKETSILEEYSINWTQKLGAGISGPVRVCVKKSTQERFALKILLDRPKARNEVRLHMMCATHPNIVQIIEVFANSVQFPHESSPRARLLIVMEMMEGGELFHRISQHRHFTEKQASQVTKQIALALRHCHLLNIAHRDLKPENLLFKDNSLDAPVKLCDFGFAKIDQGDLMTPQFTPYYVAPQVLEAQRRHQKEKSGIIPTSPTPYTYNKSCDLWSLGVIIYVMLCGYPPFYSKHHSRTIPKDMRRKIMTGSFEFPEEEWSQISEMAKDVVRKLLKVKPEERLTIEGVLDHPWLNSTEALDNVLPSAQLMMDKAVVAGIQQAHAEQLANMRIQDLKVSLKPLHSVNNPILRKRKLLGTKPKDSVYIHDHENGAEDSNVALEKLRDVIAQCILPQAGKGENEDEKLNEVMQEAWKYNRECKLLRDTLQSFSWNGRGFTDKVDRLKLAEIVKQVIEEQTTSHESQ

THP-1 = assay: Cytotoxicity against human THP-1 cells assessed as cell viability measured after 24 hrs by CCK-8 assay; format: functional, cell-based; conditions: THP-1, 24 h
[11] = Cmax in ICR mouse at 5 mg/kg, sc single dose measured upto 24 hrs; format: ADME, organism-based; design: time < 24 hrs, dose 5 mg/kg, route sc; conditions: in vivo
[12] = target: Insulin-like growth factor 1 receptor (Homo sapiens) (UniProt P08069); assay: Inhibition of human partial length wild type IGF-1R (L972/D1294) expressed in bacterial system at 1 uM by KINOMEscan analysis relative to control
[13] = target: MAP kinase-activated protein kinase 2 (Homo sapiens) (UniProt P49137); assay: Inhibition of human partial length wild type MAPKAP-K2 expressed in bacterial system at 1 uM by KINOMEscan analysis relative to control
[14] = target: Protein kinase C theta type (Homo sapiens) (UniProt Q04759); assay: Inhibition of human partial length TPKCtheta (L350/S706) expressed in bacterial system at 1 uM by KINOMEscan analysis relative to control
[15] = target: Casein kinase II subunit alpha' (Homo sapiens) (UniProt P19784); assay: Inhibition of human full length wild type CK2alpha2 expressed in mammalian system at 1 uM by KINOMEscan analysis relative to control
[16] = target: Serine/threonine-protein kinase 10 (Homo sapiens) (UniProt O94804); assay: Inhibition of human partial length wild type LOK (E16/V314) expressed in bacterial system at 1 uM by KINOMEscan analysis relative to control
Serine/threonine-protein kinase 10 (Homo sapiens), sequence (O94804 whole entry, looked up): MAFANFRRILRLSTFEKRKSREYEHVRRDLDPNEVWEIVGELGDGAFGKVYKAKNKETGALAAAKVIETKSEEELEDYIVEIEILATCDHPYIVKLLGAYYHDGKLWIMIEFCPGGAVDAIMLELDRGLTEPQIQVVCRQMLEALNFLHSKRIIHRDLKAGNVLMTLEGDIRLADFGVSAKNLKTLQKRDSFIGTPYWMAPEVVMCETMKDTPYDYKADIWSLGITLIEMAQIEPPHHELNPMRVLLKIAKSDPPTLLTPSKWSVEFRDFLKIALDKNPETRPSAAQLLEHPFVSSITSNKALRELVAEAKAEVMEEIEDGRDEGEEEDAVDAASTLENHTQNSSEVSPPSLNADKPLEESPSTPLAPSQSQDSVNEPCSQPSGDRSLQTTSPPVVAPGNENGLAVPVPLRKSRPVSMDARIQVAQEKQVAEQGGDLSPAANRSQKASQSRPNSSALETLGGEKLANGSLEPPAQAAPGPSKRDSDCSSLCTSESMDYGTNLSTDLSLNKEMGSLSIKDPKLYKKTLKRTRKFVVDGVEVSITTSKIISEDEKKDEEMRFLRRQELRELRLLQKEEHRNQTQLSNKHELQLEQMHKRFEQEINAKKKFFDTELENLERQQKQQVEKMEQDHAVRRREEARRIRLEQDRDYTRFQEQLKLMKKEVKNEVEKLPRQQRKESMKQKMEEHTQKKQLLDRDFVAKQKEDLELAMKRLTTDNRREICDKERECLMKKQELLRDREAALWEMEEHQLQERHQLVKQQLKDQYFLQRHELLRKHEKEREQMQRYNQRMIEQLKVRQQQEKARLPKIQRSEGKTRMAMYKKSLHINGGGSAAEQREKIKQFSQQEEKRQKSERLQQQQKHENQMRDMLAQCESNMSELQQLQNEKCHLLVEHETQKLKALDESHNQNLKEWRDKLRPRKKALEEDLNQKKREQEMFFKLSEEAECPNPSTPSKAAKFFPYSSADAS

Homo sapiens = species: Homo sapiens; assay: Inhibition of human partial length wild type PRAK (M1/R415) expressed in mammalian system at 1 uM by KINOMEscan analysis relative to control
[17] = target: Cyclin-dependent kinase 3 (Homo sapiens, UniProt Q00526); assay: Inhibition of CDK3 (unknown origin)
[18] = target: Serine/threonine-protein kinase Chk1 (Homo sapiens) (UniProt O14757); assay: Inhibition of human partial length wild type CHK1 expressed in bacterial system at 1 uM by KINOMEscan analysis relative to control
Serine/threonine-protein kinase Chk1 (Homo sapiens), sequence (O14757 whole entry): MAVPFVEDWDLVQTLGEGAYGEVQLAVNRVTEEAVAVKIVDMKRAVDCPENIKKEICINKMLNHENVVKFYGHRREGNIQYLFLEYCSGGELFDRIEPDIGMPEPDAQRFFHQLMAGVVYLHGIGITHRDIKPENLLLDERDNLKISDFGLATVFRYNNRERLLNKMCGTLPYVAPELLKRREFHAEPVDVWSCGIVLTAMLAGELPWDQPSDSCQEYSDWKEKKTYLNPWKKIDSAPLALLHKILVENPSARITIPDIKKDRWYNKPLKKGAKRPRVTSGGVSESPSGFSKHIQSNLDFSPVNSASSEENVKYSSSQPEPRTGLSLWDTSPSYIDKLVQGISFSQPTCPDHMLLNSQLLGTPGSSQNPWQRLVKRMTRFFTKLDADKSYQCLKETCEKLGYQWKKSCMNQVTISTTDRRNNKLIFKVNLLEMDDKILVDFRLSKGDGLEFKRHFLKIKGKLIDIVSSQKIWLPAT

[19] = target: Calcium/calmodulin-dependent protein kinase type 1 (Homo sapiens) (UniProt Q14012); assay: Inhibition of human partial length wild type CaMKI expressed in bacterial system at 1 uM by KINOMEscan analysis relative to control
Calcium/calmodulin-dependent protein kinase type 1 (Homo sapiens), sequence (Q14012 whole entry, looked up): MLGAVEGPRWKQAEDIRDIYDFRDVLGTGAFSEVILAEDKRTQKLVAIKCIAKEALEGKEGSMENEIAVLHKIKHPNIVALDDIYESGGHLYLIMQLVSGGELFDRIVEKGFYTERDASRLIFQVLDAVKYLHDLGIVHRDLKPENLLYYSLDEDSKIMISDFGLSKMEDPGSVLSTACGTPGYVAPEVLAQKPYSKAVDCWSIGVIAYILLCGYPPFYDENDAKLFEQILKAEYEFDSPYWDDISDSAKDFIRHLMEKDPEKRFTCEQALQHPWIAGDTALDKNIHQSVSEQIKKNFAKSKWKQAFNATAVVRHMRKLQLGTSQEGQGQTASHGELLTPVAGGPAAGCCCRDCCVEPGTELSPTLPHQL

[20] = Observed MRT (infinitive) in ICR mouse at 5 mg/kg, iv single dose measured upto 24 hrs; format: ADME, organism-based; conditions: in vivo
[21] = target: Tyrosine-protein kinase receptor TYRO3 (Homo sapiens) (UniProt Q06418); assay: Inhibition of RSE (unknown origin) at 1 uM relative to control
[22] = target: SRSF protein kinase 1 (Homo sapiens) (UniProt Q96SB4); assay: Inhibition of human full length wild type SRPK1 expressed in mammalian system at 1 uM by KINOMEscan analysis relative to control
SRSF protein kinase 1 (Homo sapiens), sequence (Q96SB4 whole entry): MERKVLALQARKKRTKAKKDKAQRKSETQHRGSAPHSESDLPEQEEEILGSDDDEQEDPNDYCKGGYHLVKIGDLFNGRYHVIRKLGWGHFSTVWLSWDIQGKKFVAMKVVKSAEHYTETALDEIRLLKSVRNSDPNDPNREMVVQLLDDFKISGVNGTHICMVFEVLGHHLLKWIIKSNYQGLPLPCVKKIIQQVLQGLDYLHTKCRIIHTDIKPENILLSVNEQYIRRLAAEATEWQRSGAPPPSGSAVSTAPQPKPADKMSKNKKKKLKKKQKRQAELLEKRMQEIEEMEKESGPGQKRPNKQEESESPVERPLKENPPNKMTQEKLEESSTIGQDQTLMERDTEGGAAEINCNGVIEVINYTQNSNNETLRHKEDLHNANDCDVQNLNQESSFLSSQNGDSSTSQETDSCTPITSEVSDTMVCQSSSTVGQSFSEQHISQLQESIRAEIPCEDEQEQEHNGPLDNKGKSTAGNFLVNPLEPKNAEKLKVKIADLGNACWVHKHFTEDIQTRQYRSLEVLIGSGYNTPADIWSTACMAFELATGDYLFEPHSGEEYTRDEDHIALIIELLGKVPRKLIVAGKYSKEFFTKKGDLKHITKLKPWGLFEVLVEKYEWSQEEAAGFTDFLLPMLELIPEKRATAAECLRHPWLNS

[23] = target: 5'-AMP-activated protein kinase catalytic subunit alpha-1 (Homo sapiens) (UniProt Q13131); assay: Inhibition of human partial length AMPKalphal (M1/E306) expressed in bacterial system at 1 uM by KINOMEscan analysis relative to control
[24] = target: Cyclin-dependent kinase 2 (Homo sapiens, UniProt P24941); assay: Inhibition of CDK2 (unknown origin) assessed as phosphorylation of ULight 4EBP1 peptide substrate measured after 2 hrs by FRET-based LANCE Ultra KinSelect assay
[25] = Apparent permeability across basolateral to apical side in human Caco-2 cells measured after 120 mins by LC-MS/MS analysis; format: ADME, cell-based
[26] = target: Dual specificity mitogen-activated protein kinase kinase 1 (Homo sapiens) (UniProt Q02750); assay: Inhibition of human full length wild type MEK1 expressed in mammalian system at 1 uM by KINOMEscan analysis relative to control
[27] = target: PI3-kinase p110-delta/p85-alpha (Homo sapiens) (UniProt P27986+O00329); assay: Inhibition of PI3 Kinase p110delta/p85alpha (unknown origin) at 1 uM relative to control; format: protein-complex assay
[28] = target: Cyclin-dependent kinase 1 (Homo sapiens, UniProt P06493); assay: Inhibition of CDK1 (unknown origin)
[29] = target: MAP kinase-interacting serine/threonine-protein kinase 2 (Homo sapiens) (UniProt Q9HBH9); assay: Inhibition of human partial length wild type Mnk2 (G63/S388) expressed in mammalian system at 1 uM by KINOMEscan analysis relative to control
MAP kinase-interacting serine/threonine-protein kinase 2 (Homo sapiens), sequence (Q9HBH9 whole entry, looked up): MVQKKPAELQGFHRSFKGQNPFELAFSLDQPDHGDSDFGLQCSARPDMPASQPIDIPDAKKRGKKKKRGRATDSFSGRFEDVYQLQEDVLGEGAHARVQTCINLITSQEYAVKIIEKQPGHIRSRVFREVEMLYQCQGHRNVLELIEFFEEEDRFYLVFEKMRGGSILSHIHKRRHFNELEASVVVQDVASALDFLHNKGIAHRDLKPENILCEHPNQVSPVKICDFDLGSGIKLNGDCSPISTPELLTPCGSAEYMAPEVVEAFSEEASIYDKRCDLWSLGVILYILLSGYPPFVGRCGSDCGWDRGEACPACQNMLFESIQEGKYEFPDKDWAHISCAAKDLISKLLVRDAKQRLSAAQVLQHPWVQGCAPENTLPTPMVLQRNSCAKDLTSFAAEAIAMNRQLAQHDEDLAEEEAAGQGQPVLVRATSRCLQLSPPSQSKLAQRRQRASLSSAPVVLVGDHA

[30] = target: PI3-kinase p110-alpha/p85-alpha (Homo sapiens) (UniProt P27986+P42336); assay: Inhibition of PI3 kinase p110alpha/p85alpha (unknown origin) at 1 uM relative to control; format: protein-complex assay
[31] = target: Ephrin type-A receptor 5 (Homo sapiens) (UniProt P54756); assay: Inhibition of human partial length wild type EphA5 (T627/V930) expressed in bacterial system at 1 uM by KINOMEscan analysis relative to control
[32] = target: Serine/threonine-protein kinase 4 (Homo sapiens) (UniProt Q13043); assay: Inhibition of human full length wild type MST1 expressed in mammalian system at 1 uM by KINOMEscan analysis relative to control

## C=CC(=O)Nc1ccc(C(=O)Nc2n[nH]c3ccc(-c4cncc(NC[C@@H](O)c5ccccc5)c4)cc23)cc1
[1]
  inhibition: < 50%
[2]
  inhibition: < 50%
[3]
  AUC(0-t) at 24 h: 17300 ng·h/mL
[4]
  inhibition: < 50%
[5]
  inhibition: < 50%
[6]
  MRT inf: 5 h
[7]
  inhibition: < 50%
[8]
  inhibition: < 50%
[9]
  inhibition: < 50%
[10]
  inhibition: < 50%
THP-1
  IC50: 13 µM
[11]
  Cmax: 3810 ng/mL
[12]
  inhibition: < 50%
[13]
  inhibition: < 50%
[14]
  inhibition: 74%
[15]
  inhibition: < 50%
[16]
  inhibition: < 50%
Homo sapiens
  inhibition: < 50%
[17]
  IC50: 1.84 µM
[18]
  inhibition: < 50%
[19]
  inhibition: < 50%
[20]
  MRT inf: 10 h
[21]
  inhibition: < 50%
[22]
  inhibition: < 50%
[23]
  inhibition: 79%
[24]
  IC50: 0.823 µM
[25]
  Papp B→A at 2 h: 6 ×10⁻⁶ cm/s
[26]
  inhibition: < 50%
[27]
  inhibition: < 50%
[28]
  IC50: 3.37 µM
[29]
  inhibition: < 50%
[30]
  inhibition: < 50%
[31]
  inhibition: < 50%
[32]
  inhibition: < 50%
